Data as given in patent US10738056B2 (Aduro BioTech, Inc., priority 2017, dated 2020).
Like-named read-outs stand apart in the source and are kept apart here.

Legend:
[1] = molecular target: Human cGAS amino acids 155-522 (Homo sapiens (Human), UniProt Q8N884); test: cGAS biochemical activity assay (ATP remaining, Kinase-Glo Max luminescence); conditions: human cGAS 155-522, ATP remaining (Kinase-Glo Max); read-out: cGAS IC50
[2] = system: cGAS/STING pathway in THP1 cells; test: THP1 cell-based cGAS/STING pathway activity assay (IRF-3-linked luciferase reporter); conditions: Homo sapiens, THP-1
Outline: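 THP1 cells carrying an IRF-3-driven luciferase reporter were read across a range of compound concentrations, and IC50 values were derived from these concentration responses; the assay upper limit was 100 μM.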

[3] = system: RANTES/CCL5 secretion by Trex1-KO BMM; test: Inhibition of RANTES/CCL5 secretion by Trex1-KO bone marrow-derived macrophages; type: cell-based, mice; set-up: key to BMM IC50 R (RANTES): A: an IC50 value less than 5 μM; B: an IC50 value between 5 and 20 μM; where an IC50 value could not be calculated from the data; conditions: for IC50: Mus musculus, Macrophage
Protocol: (§1) A cellular assay can be used to asses the compounds of the invention for their ability to inhibit cytokine production. Bone marrow macrophages harvested from mice can be used to determine response as a function of compound concentration.
(§2) The inhibition of secreted cytokine was measured in bone marrow-derived macrophages (BMMs) from diseased mice to evaluate the potency of compounds of the invention as described herein. […] To derive bone marrow macrophages, marrow extracted from the femurs and tibias were harvested from Trex1-KO mice was cultured in growth media supplemented with macrophage colony-stimulating factor (M-CSF). Differentiated BMM were harvested and frozen for subsequent experimentation. For treatment with compound C1089 (see Example 13), a frozen stock of Trex1-KO BMM was thawed and 1×10^5 cells were plated in 96 well format. BMMs were treated with a dilution series of C1089 and incubated overnight at 37° C. 5% CO2, at which point cellular supernatants were harvested and stored at −80° C. for subsequent analysis. The media used for this dilution series was without FBS. Remaining cells were evaluated for viability using Cell Titer Glo 2.0 kit according to the manufacturer instructions. BMM supernatants were evaluated for the secreted cytokine […] (RANTES/CCL5) or for secreted cytokine monocyte chemoattractant protein 1 (MCP-1/CCL2) using cytometric bead array mouse Flex Set kits (BD Biosciences). Cytokine concentration was calculated from a standard curve and normalized to vehicle (DMSO) treated cells.

[4] = system: MCP-1/CCL2 secretion by Trex1-KO BMM; test: Inhibition of MCP-1/CCL2 secretion by Trex1-KO bone marrow-derived macrophages; type: cell-based, mice; set-up: key to BMM IC50 M (MCP-1): A: an IC50 value less than 5 μM; B: an IC50 value between 5 and 20 μM; where an IC50 value could not be calculated from the data; conditions: for IC50: Mus musculus, Macrophage
Protocol: as §1, §2

Trex1-KO BMM = test: Viability of Trex1-KO BMM (Cell Titer Glo 2.0); type: cell-based, mice; conditions: Trex1-KO BMM at the cytokine IC50 concentrations
Protocol: as §2

[5] = Solubility of free base (footnote to Table 15); type: physicochemical; conditions: tested as the HCl salt
[6] = RANTES secretion, read-out: BMM IC50 R (RANTES)
[7] = MCP-1 secretion, read-out: BMM IC50 M (MCP-1)

Human cGAS amino acids 155-522, sequence (Q8N884 157-522): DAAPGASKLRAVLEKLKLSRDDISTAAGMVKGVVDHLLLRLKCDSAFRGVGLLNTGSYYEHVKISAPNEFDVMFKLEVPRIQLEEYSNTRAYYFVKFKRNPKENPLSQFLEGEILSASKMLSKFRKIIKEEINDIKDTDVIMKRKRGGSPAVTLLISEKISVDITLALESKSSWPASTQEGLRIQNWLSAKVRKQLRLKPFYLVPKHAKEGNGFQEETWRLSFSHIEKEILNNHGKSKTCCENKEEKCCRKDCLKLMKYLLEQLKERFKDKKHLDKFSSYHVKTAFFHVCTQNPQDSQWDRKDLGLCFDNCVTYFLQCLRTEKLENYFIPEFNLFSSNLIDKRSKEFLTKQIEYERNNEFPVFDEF

Row | Structure (SMILES) | IC50 [1] [µM] | IC50 [2] [µM] | IC50 [3, 6] [µM] | IC50 [4, 7] [µM] | BMM IC50 R (RANTES) ([3]; RANTES secretion) | BMM IC50 M (MCP-1) ([4]; MCP-1 secretion) | IC50 ([3]; overnight, media without FBS, normalized to DMSO, read-out: RANTES/CCL5 IC50) [µM] | IC50 ([4]; overnight, media without FBS, normalized to DMSO, read-out: MCP-1/CCL2 IC50) [µM] | BMM viability (Trex1-KO BMM) [%] | solubility of the free base [5]
1 | CSc1cccc2oc(-c3c(C)[nH]c4c(-c5ccccc5)c(C(F)(F)F)nn4c3=O)nc12 [Compound C1047, 5-methyl-6-(4-(methylthio)benzo[d]oxazol-2-yl)-3-phenyl-2-(trifluoromethyl)pyrazolo[1,5-a]pyrimidin-7(4H)-one] | < 20 | < 20 | < 5 | 5 to 20 |  |  |  |  |  | 
2 | Cc1[nH]c2c(-c3ccccc3)c(C(F)(F)F)nn2c(=O)c1C(=O)Nc1nc(C2CC2)cs1 [Compound A1095, N-(4-cyclopropylthiazol-2-yl)-5-methyl-7-oxo-3-phenyl-2-(trifluoromethyl)-4,7-dihydropyrazolo[1,5-a]pyrimidine-6-carboxamide] | < 20 | < 20 |  |  | C | C |  |  |  | 
3 | COc1cccc2oc(-c3c(C#N)[nH]c4c(-c5ccccc5)c(C(F)(F)F)nn4c3=O)nc12 [Compound C1089, 6-(4-methoxybenzo[d]oxazol-2-yl)-7-oxo-3-phenyl-2-(trifluoromethyl)-4,7-dihydropyrazolo[1,5-a]pyrimidine-5-carbonitrile] | < 20 | < 20 |  |  |  |  | 1.25 | 6.97 | 100 | 
4 | COc1cccc2oc(-c3c(CSC)[nH]c4c(-c5ccccc5)c(C(F)(F)F)nn4c3=O)nc12 [Compound C1136, 6-(4-methoxybenzo[d]oxazol-2-yl)-5-((methylthio)methyl)-3-phenyl-2-(trifluoromethyl)pyrazolo[1,5-a]pyrimidin-7(4H)-one] | < 20 | < 20 |  | 5 to 20 | C |  |  |  |  | 
5 | COc1cc(CN)cc2oc(-c3c(C)[nH]c4c(-c5ccccc5)c(C(F)(F)F)nn4c3=O)nc12 [Compound C1128, 6-(6-(aminomethyl)-4-methoxybenzo[d]oxazol-2-yl)-5-methyl-3-phenyl-2-(trifluoromethyl)pyrazolo[1,5-a]pyrimidin-7(4H)-one] | > 250 |  |  |  |  |  |  |  |  | insoluble
6 | Cc1[nH]c2c(-c3ccccc3)c(C(F)(F)F)nn2c(=O)c1-c1nc2c(OCC3CC3)cccc2o1 [Compound C1045, 6-(4-(cyclopropylmethoxy)benzo[d]oxazol-2-yl)-5-methyl-3-phenyl-2-(trifluoromethyl)pyrazolo[1,5-a]pyrimidin-7(4H)-one] | < 20 | < 20 | 5 to 20 |  |  | C |  |  |  | 
7 | COCc1[nH]c2c(-c3ccccc3)c(C(F)(F)F)nn2c(=O)c1-c1nnc(C2CCCC2)o1 [Compound D1018, 6-(5-cyclopentyl-1,3,4-oxadiazol-2-yl)-5-(methoxymethyl)-3-phenyl-2-(trifluoromethyl)pyrazolo[1,5-a]pyrimidin-7(4H)-one] | < 20 | 20 to 100 |  |  | C | C |  |  |  | 
8 | COCc1[nH]c2c(-c3ccccc3)c(C#N)nn2c(=O)c1-c1nc2c(OC)cccc2o1 [Compound C1139, 6-(4-methoxybenzo[d]oxazol-2-yl)-5-(methoxymethyl)-7-oxo-3-phenyl-4,7-dihydropyrazolo[1,5-a]pyrimidine-2-carbonitrile] | < 20 | < 20 | 5 to 20 | 5 to 20 |  |  |  |  |  | 
9 | COc1ccc(C)c2oc(-c3c(C)[nH]c4c(-c5ccccc5)c(C(F)(F)F)nn4c3=O)nc12 [Compound C1092, 6-(4-methoxy-7-methylbenzo[d]oxazol-2-yl)-5-methyl-3-phenyl-2-(trifluoromethyl)pyrazolo[1,5-a]pyrimidin-7(4H)-one] | < 20 | > 100 |  |  | C | C |  |  |  | 
10 | Cc1[nH]c2c(-c3ccccc3)c(C(F)(F)F)nn2c(=O)c1-c1nc2c(O)cccc2o1 [Compound C1053, 6-(4-hydroxybenzo[d]oxazol-2-yl)-5-methyl-3-phenyl-2-(trifluoromethyl)pyrazolo[1,5-a]pyrimidin-7(4H)-one] | < 20 | 20 to 100 |  |  | C | C |  |  |  | 
11 | COc1cc(Cl)cc2oc(-c3c(C)[nH]c4c(-c5ccccc5)c(C#N)nn4c3=O)nc12 [Compound C1160, 6-(6-chloro-4-methoxybenzo[d]oxazol-2-yl)-5-methyl-7-oxo-3-phenyl-4,7-dihydropyrazolo[1,5-a]pyrimidine-2-carbonitrile] | < 20 | > 100 |  |  | C | C |  |  |  | 
12 | COc1cc(Br)cc(NC(=O)c2c(C)[nH]c3c(-c4ccccc4)c(C(F)(F)F)nn3c2=O)c1 [Compound A1129, N-(3-bromo-5-methoxyphenyl)-5-methyl-7-oxo-3-phenyl-2-(trifluoromethyl)-4,7-dihydropyrazolo[1,5-a]pyrimidine-6-carboxamide] | < 20 | 20 to 100 |  | 5 to 20 | C |  |  |  |  | 
13 | COCCOCc1[nH]c2c(-c3ccccc3)c(C(F)(F)F)nn2c(=O)c1-c1nc2c(OC)cccc2o1 [Compound C1151, 6-(4-methoxybenzo[d]oxazol-2-yl)-5-((2-methoxyethoxy)methyl)-3-phenyl-2-(trifluoromethyl)pyrazolo[1,5-a]pyrimidin-7(4H)-one] | < 20 | < 20 | 5 to 20 |  |  | C |  |  |  | 
14 | COc1cccc2oc(-c3c(COCc4ccccc4)[nH]c4c(-c5ccccc5)c(C(F)(F)F)nn4c3=O)nc12 [Compound C1099, 5-((benzyloxy)methyl)-6-(4-methoxybenzo[d]oxazol-2-yl)-3-phenyl-2-(trifluoromethyl)pyrazolo[1,5-a]pyrimidin-7(4H)-one] | < 20 | < 20 |  |  | C | C |  |  |  | 
15 | Cc1[nH]c2c(-c3ccccc3)c(C(F)(F)F)nn2c(=O)c1-c1nc(C(=O)O)c(C2CCCCC2)o1 [Compound C1169, 5-cyclohexyl-2-(5-methyl-7-oxo-3-phenyl-2-(trifluoromethyl)-4,7-dihydropyrazolo[1,5-a]pyrimidin-6-yl)oxazole-4-carboxylic acid] | < 20 | 20 to 100 |  |  | C | C |  |  |  | 
16 | COc1cccc2oc(-c3c(C(F)(F)F)[nH]c4c(-c5ccccc5)c(C#N)nn4c3=O)nc12 [Compound C1118, 6-(4-methoxybenzo[d]oxazol-2-yl)-7-oxo-3-phenyl-5-(trifluoromethyl)-4,7-dihydropyrazolo[1,5-a]pyrimidine-2-carbonitrile] | < 20 | < 20 | < 5 |  |  | C |  |  |  | 
17 | COc1cc(Cl)cc(NC(=O)c2c(C)[nH]c3c(-c4ccccc4)c(C(F)(F)F)nn3c2=O)c1 [Compound A1134, N-(3-chloro-5-methoxyphenyl)-5-methyl-7-oxo-3-phenyl-2-(trifluoromethyl)-4,7-dihydropyrazolo[1,5-a]pyrimidine-6-carboxamide] | < 20 | < 20 | < 5 | < 5 |  |  |  |  |  | 
18 | COc1cccc2oc(-c3c(SC)[nH]c4c(-c5ccccc5)c(C(F)(F)F)nn4c3=O)nc12 [Compound C1121, 6-(4-methoxybenzo[d]oxazol-2-yl)-5-(methylthio)-3-phenyl-2-(trifluoromethyl)pyrazolo[1,5-a]pyrimidin-7(4H)-one] | < 20 | < 20 |  | < 5 | C |  |  |  |  | 
19 | Cc1[nH]c2c(-c3ccccc3)c(C(F)(F)F)nn2c(=O)c1-c1nc2c(C(N)=O)cccc2o1 [Compound C1074, 2-(5-methyl-7-oxo-3-phenyl-2-(trifluoromethyl)-4,7-dihydropyrazolo[1,5-a]pyrimidin-6-yl)benzo[d]oxazole-4-carboxamide] | 20 to 250 | > 100 |  |  | C | C |  |  |  | 
20 | COc1ccc(N)c2oc(-c3c(C)[nH]c4c(-c5ccccc5)c(C(F)(F)F)nn4c3=O)nc12 [Compound C1154, 6-(7-amino-4-methoxybenzo[d]oxazol-2-yl)-5-methyl-3-phenyl-2-(trifluoromethyl)pyrazolo[1,5-a]pyrimidin-7(4H)-one] | < 20 | < 20 |  |  | C | C |  |  |  | 
